Source: patent US4002733A, “Sunscreening compositions” (Minnesota Mining and Manufacturing Company, priority 1974, dated 1977)

Assay: UV absorption of the product in solution (absorption maximum, Epsilon value)
Assay type: physicochemical
Conditions: solvent not stated

- absorption maxima: 292 nm
- molar extinction coefficient (Epsilon value): 48,000
SMILES: CCC(=O)c1ccc(NC(=O)CCCCCCCCC(=O)Nc2ccc(C(=O)CC)cc2)cc1 [Example 4]
